# What was measured:
# [1] = system: LU99 cells; assay: CellTiter-Glo viability and CalcuSyn synergy, PRMT5 inhibitor + sotorasib, 6 days; details: for Combination Fa: 8640 min
# [2] = system: MIAPACA2 cells; assay: CellTiter-Glo viability and CalcuSyn synergy, PRMT5 inhibitor + sotorasib, 6 days (Example 15); type: cell-based; set-up: key: CI<1 synergy, CI=1 additivity, CI>1 antagonism
# Method: Raw luminescent values were converted to fraction affected (Fa) with the following equation: […]
# Synergy analysis was performed using the CalcuSyn software to determine CI scores based on the drug concentrations used and corresponding Fa values. Results are shown in Table 24 below. *CI Values (Calcusyn): CI<1 indicates synergy. C=1 indicates additivity. C>1 indicates antagonism.
# [3] = Compound B 0.0384 μM + sotorasib 0.15625 μM
# [4] = Compound B 0.0384 μM + sotorasib 0.3125 μM
# [5] = Compound B 0.0384 μM + sotorasib 0.625 μM
# [6] = Compound B 0.0384 μM + sotorasib 1.25 μM
# [7] = Compound B 0.0384 μM + sotorasib 2.5 μM
# [8] = Compound B 0.0384 μM + sotorasib 5 μM
# [9] = Compound B 0.0384 μM + sotorasib 10 μM
smiles,measurement,setting,value
Cc1cc2cc(C(=O)N(Cc3ccc(C(F)(F)F)cn3)[C@@H](C)c3ncccn3)ccc2nc1N [Compound B],Computed CI value,[1]; [3],0.307
same,Combination Fa,[1]; [3],0.5467
same,Computed CI value,[1]; [4],0.234
same,Combination Fa,[1]; [4],0.5942
same,Computed CI value,[1]; [5],0.269
same,Combination Fa,[1]; [5],0.5919
same,Computed CI value,[1]; [6],0.273
same,Combination Fa,[1]; [6],0.615
same,Computed CI value,[1]; [7],0.32
same,Combination Fa,[1]; [7],0.6304
same,Computed CI value,[1]; [8],0.321
same,Combination Fa,[1]; [8],0.6694
same,Computed CI value,[1]; [9],0.669
same,Combination Fa,[1]; [9],0.6476
same,CI score,[2]; Compound B 0.018 μM + sotorasib 0.006 μM,0.68
same,CI score,[2]; Compound B 0.018 μM + sotorasib 0.010 μM,0.73
same,CI score,[2]; Compound B 0.018 μM + sotorasib 0.015 μM,0.64
same,CI score,[2]; Compound B 0.018 μM + sotorasib 0.024 μM,0.80
same,CI score,[2]; Compound B 0.018 μM + sotorasib 0.039 μM,0.77
same,CI score,[2]; Compound B 0.018 μM + sotorasib 0.063 μM,0.93
same,CI score,[2]; Compound B 0.018 μM + sotorasib 0.100 μM,1.25
same,CI score,[2]; Compound B 0.034 μM + sotorasib 0.006 μM,0.55
same,CI score,[2]; Compound B 0.034 μM + sotorasib 0.010 μM,0.59
same,CI score,[2]; Compound B 0.034 μM + sotorasib 0.015 μM,0.56
same,CI score,[2]; Compound B 0.034 μM + sotorasib 0.024 μM,0.76
same,CI score,[2]; Compound B 0.034 μM + sotorasib 0.039 μM,0.79
same,CI score,[2]; Compound B 0.034 μM + sotorasib 0.063 μM,0.83
same,CI score,[2]; Compound B 0.034 μM + sotorasib 0.100 μM,1.43
same,CI score,[2]; Compound B 0.064 μM + sotorasib 0.006 μM,0.52
same,CI score,[2]; Compound B 0.064 μM + sotorasib 0.010 μM,0.65
same,CI score,[2]; Compound B 0.064 μM + sotorasib 0.015 μM,0.68
same,CI score,[2]; Compound B 0.064 μM + sotorasib 0.024 μM,0.53
same,CI score,[2]; Compound B 0.064 μM + sotorasib 0.039 μM,0.72
same,CI score,[2]; Compound B 0.064 μM + sotorasib 0.063 μM,0.75
same,CI score,[2]; Compound B 0.064 μM + sotorasib 0.100 μM,1.24
same,CI score,[2]; Compound B 0.121 μM + sotorasib 0.006 μM,0.63
same,CI score,[2]; Compound B 0.121 μM + sotorasib 0.010 μM,0.71
same,CI score,[2]; Compound B 0.121 μM + sotorasib 0.015 μM,0.53
same,CI score,[2]; Compound B 0.121 μM + sotorasib 0.024 μM,0.64
same,CI score,[2]; Compound B 0.121 μM + sotorasib 0.039 μM,0.67
same,CI score,[2]; Compound B 0.121 μM + sotorasib 0.063 μM,0.96
same,CI score,[2]; Compound B 0.121 μM + sotorasib 0.100 μM,1.02
same,CI score,[2]; Compound B 0.230 μM + sotorasib 0.006 μM,0.65
same,CI score,[2]; Compound B 0.230 μM + sotorasib 0.010 μM,0.63
same,CI score,[2]; Compound B 0.230 μM + sotorasib 0.015 μM,0.55
same,CI score,[2]; Compound B 0.230 μM + sotorasib 0.024 μM,0.51
same,CI score,[2]; Compound B 0.230 μM + sotorasib 0.039 μM,0.71
same,CI score,[2]; Compound B 0.230 μM + sotorasib 0.063 μM,0.72
same,CI score,[2]; Compound B 0.230 μM + sotorasib 0.100 μM,1.00
same,CI score,[2]; Compound B 0.437 μM + sotorasib 0.006 μM,0.55
same,CI score,[2]; Compound B 0.437 μM + sotorasib 0.010 μM,0.70
same,CI score,[2]; Compound B 0.437 μM + sotorasib 0.015 μM,0.52
same,CI score,[2]; Compound B 0.437 μM + sotorasib 0.024 μM,0.61
same,CI score,[2]; Compound B 0.437 μM + sotorasib 0.039 μM,0.65
same,CI score,[2]; Compound B 0.437 μM + sotorasib 0.063 μM,0.67
same,CI score,[2]; Compound B 0.437 μM + sotorasib 0.100 μM,1.06
same,CI score,[2]; Compound B 0.831 μM + sotorasib 0.006 μM,0.83
same,CI score,[2]; Compound B 0.831 μM + sotorasib 0.010 μM,0.85
same,CI score,[2]; Compound B 0.831 μM + sotorasib 0.015 μM,0.68
same,CI score,[2]; Compound B 0.831 μM + sotorasib 0.024 μM,0.65
same,CI score,[2]; Compound B 0.831 μM + sotorasib 0.039 μM,0.75
same,CI score,[2]; Compound B 0.831 μM + sotorasib 0.063 μM,0.89
same,CI score,[2]; Compound B 0.831 μM + sotorasib 0.100 μM,1.15
same,CI score,[2]; Compound B 1.579 μM + sotorasib 0.006 μM,1.30
same,CI score,[2]; Compound B 1.579 μM + sotorasib 0.010 μM,1.37
same,CI score,[2]; Compound B 1.579 μM + sotorasib 0.015 μM,0.95
same,CI score,[2]; Compound B 1.579 μM + sotorasib 0.024 μM,0.91
same,CI score,[2]; Compound B 1.579 μM + sotorasib 0.039 μM,0.95
same,CI score,[2]; Compound B 1.579 μM + sotorasib 0.063 μM,0.98
same,CI score,[2]; Compound B 1.579 μM + sotorasib 0.100 μM,1.25

# Source: patent publication US20260373156A1, “CANCER TREATMENTS USING MTA-COOPERATIVE PRMT5 INHIBITORS” (AMGEN INC., priority 2022, published 2026)
